Assay results reported in PubChem BioAssay (NCI).
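Protocol summary: plate cells (96-well), add compound at 5 concentrations, incubate 48 h, interpolate endpoints linearly. TGI is the concentration that stops growth completely.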

Key:
Experiment in all cases: DTP human tumour cell line panel, 48 h
[1] = system: IGROV1 ovarian
[2] = system: A498 renal
[3] = system: NCI-H23 lung
[4] = system: ACHN renal
[5] = system: MDA-MB-435
[6] = system: SK-MEL-5 melanoma
[7] = system: HOP-62 NSCLC
[8] = system: M14 melanoma
[9] = system: NCI-H226 lung
[10] = system: A549 NSCLC
[11] = system: RPMI-8226 leukemia
[12] = system: OVCAR-8 ovarian
[13] = system: SF-539 CNS
[14] = system: OVCAR-5 ovarian
[15] = system: SN12C renal
[16] = system: HCT-116 colon
[17] = system: RXF 393 renal
[18] = system: HS 578T breast
[19] = system: SK-MEL-2 melanoma
[20] = system: K-562 leukemia
[21] = system: OVCAR-4 ovarian
[22] = system: SR leukemia
[23] = system: NCI-H522 lung
[24] = system: CAKI-1 renal
[25] = system: SK-OV-3 ovarian
[26] = system: KM12 colon
[27] = system: PC-3 prostate
[28] = system: SW-620 colon
[29] = system: EKVX NSCLC
[30] = system: MDA-MB-231 breast
[31] = system: TK-10 renal
[32] = system: HCT-15 colon
[33] = system: SF-295 CNS
[34] = system: HL-60(TB) leukemia
[35] = system: HT29 colon
[36] = system: CCRF-CEM leukemia
[37] = system: HOP-92 NSCLC
[38] = system: SNB-19 CNS
[39] = system: MALME-3M melanoma
[40] = system: OVCAR-3 ovarian
[41] = system: U251 CNS
[42] = system: HCC-2998 colon
[43] = system: T-47D breast
[44] = system: SK-MEL-28 melanoma
[45] = system: MCF7 breast
[46] = system: NCI-H460 lung
[47] = system: UACC-257 melanoma
[48] = system: SF-268 CNS
[49] = system: LOX IMVI melanoma
[50] = system: DU-145 prostate
[51] = system: 786-0 renal
[52] = system: MOLT-4 leukemia
[53] = system: BT-549 breast
[54] = system: NCI/ADR-RES ovarian
[55] = system: COLO 205 colon
[56] = system: UO-31 renal
[57] = system: SNB-75 CNS
[58] = system: UACC-62 melanoma

ClC1(c2ccccc2)c2ccc(Br)cc2-c2cc(Br)ccc21
TGI [1]: 30.2 µM | TGI [2]: 32.8 µM | TGI [3]: 29.3 µM | TGI [4]: 29.6 µM | TGI [5]: 27.4 µM | TGI [6]: 29.1 µM | TGI [7]: 33.4 µM | TGI [8]: 28.7 µM | TGI [9]: 36.4 µM | TGI [10]: 34.3 µM | TGI [11]: 64.8 µM | TGI [12]: 35.8 µM | TGI [13]: 33.3 µM | TGI [14]: 31.4 µM | TGI [15]: 34.9 µM | TGI [16]: 28.5 µM | TGI [17]: 36.6 µM | TGI [18]: 50.3 µM | TGI [19]: 32.5 µM | TGI [20]: > 100 µM | TGI [21]: 27.3 µM | TGI [22]: 70.6 µM | TGI [23]: 30.6 µM | TGI [24]: 29.4 µM | TGI [25]: 39.1 µM | TGI [26]: 38.5 µM | TGI [27]: 31.3 µM | TGI [28]: 36.3 µM | TGI [29]: 32.3 µM | TGI [30]: 30.7 µM | TGI [31]: 34.8 µM | TGI [32]: 33.8 µM | TGI [33]: 31.8 µM | TGI [34]: > 100 µM | TGI [35]: 26 µM | TGI [36]: > 100 µM | TGI [37]: 29.2 µM | TGI [38]: 31.3 µM | TGI [39]: 32.5 µM | TGI [40]: 30.6 µM | TGI [41]: 31.6 µM | TGI [42]: 36.2 µM | TGI [43]: 58.3 µM | TGI [44]: 35.8 µM | TGI [45]: 36 µM | TGI [46]: 27.4 µM | TGI [47]: 34.9 µM | TGI [48]: 39.7 µM | TGI [49]: 33.2 µM | TGI [50]: 48.1 µM | TGI [51]: 30.2 µM | TGI [52]: > 100 µM | TGI [53]: 37.7 µM | TGI [54]: 34.3 µM | TGI [55]: 33.7 µM | TGI [56]: 29.6 µM

COc1cc2c(cc1OC)C(Cc1ccccc1CCCl)=NCC2
TGI [1]: > 100 µM | TGI [2]: > 100 µM | TGI [3]: > 100 µM | TGI [4]: > 100 µM | TGI [5]: > 100 µM | TGI [6]: 54.3 µM | TGI [7]: > 100 µM | TGI [8]: > 100 µM | TGI [9]: > 100 µM | TGI [10]: > 100 µM | TGI [11]: 98.1 µM | TGI [12]: > 100 µM | TGI [13]: 48.6 µM | TGI [14]: > 100 µM | TGI [15]: > 100 µM | TGI [16]: > 100 µM | TGI [17]: > 100 µM | TGI [18]: > 100 µM | TGI [19]: > 100 µM | TGI [20]: > 100 µM | TGI [21]: > 100 µM | TGI [22]: > 100 µM | TGI [23]: > 100 µM | TGI [24]: > 100 µM | TGI [25]: > 100 µM | TGI [26]: > 100 µM | TGI [27]: > 100 µM | TGI [28]: > 100 µM | TGI [29]: > 100 µM | TGI [30]: > 100 µM | TGI [31]: > 100 µM | TGI [32]: > 100 µM | TGI [33]: > 100 µM | TGI [34]: 97.2 µM | TGI [35]: > 100 µM | TGI [36]: > 100 µM | TGI [37]: > 100 µM | TGI [38]: > 100 µM | TGI [40]: > 100 µM | TGI [41]: > 100 µM | TGI [42]: > 100 µM | TGI [43]: > 100 µM | TGI [44]: > 100 µM | TGI [57]: > 100 µM | TGI [45]: > 100 µM | TGI [46]: > 100 µM | TGI [47]: > 100 µM | TGI [48]: > 100 µM | TGI [50]: > 100 µM | TGI [58]: > 100 µM | TGI [51]: > 100 µM | TGI [52]: > 100 µM | TGI [53]: > 100 µM | TGI [54]: > 100 µM | TGI [55]: > 100 µM | TGI [56]: > 100 µM
